Measurements reported in patent EP4741389A1, “KAT6 INHIBITOR” (Shanghai Qilu Pharmaceutical Research and Development …, priority 2023, dated 2025).

Key:
[1] = target: T1, KAT6A (Homo sapiens, UniProt Q92794); assay: KATs acetyltransferase enzyme activity assay (TR-FRET), KAT6A; type: biochemical; conditions: Biotin-H3 (1-21) and AcCOA, 90 minutes at room temperature
T1 construct: purchased Active Motif 81223

[2] = system: ZR-75-1 H3K23 Acetylation; assay: Histone H3 acetylation assay (H3K23 acetylation in ZR-75-1 cells); type: cell-based; conditions: Homo sapiens, 72 hours incubation, Odyssey CLx fluorescence, read-out: ZR-75-1 H3K23 Acetylation Inhibition IC50
In short: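 ZR-75-1 cells exposed to serially diluted compounds for 72 h at 37°C, then fixed with 4 w/v% paraformaldehyde, methanol-permeabilized and immunostained for acetyl-H3K23 and total histone H4. Fluorescent secondary antibody signals quantified by imaging; IC50 from four-parameter logistic nonlinear regression.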

[3] = Body weight changes and tolerability in the ZR-75-1 xenograft study; type: in vivo, Mouse; conditions: result in words; for body weight changes: differences among the groups, FIG. 1; for tolerability in tumor-bearing mice: human breast cancer ZR-75-1 model
Method: • Species: Mouse; • Strain: BALB/c nude mice; • Age and weight: 6-8 weeks old, weighing 19-26 grams; • Gender: Female; • Supplier: GemPharmatech Co., Ltd.; • Compound source: Compound A: [drawing 190] prepared with reference to patent CN114364672A.
A mixture containing 10×10^6 ZR-75-1 cells in 100 µL PBS and 100 µL Matrigel (final volume was 200 µL) was subcutaneously implanted into the right dorsal side (upper side) of each mouse. On day 18 after cell implantation, when the average tumor volume reached 138 mm^3, grouping and administration were initiated. Mice with tumor volumes ranging from 100 to 212 mm^3 were selected for the study. Mice were randomly assigned to groups based on body weight and tumor volume, with 7 mice per group. The day of grouping was designated as PG-D0, and administration for all groups started from PG-D0.
The effects of the test drugs Compound 2, Compound 5-P2, Compound 3, and Compound A on the body weight of the female BALB/c nude mouse model with subcutaneously implanted human breast cancer ZR-75-1 cell xenografts are shown in FIG. 1.

T1 sequence (Q92794 488-778 limits assumed): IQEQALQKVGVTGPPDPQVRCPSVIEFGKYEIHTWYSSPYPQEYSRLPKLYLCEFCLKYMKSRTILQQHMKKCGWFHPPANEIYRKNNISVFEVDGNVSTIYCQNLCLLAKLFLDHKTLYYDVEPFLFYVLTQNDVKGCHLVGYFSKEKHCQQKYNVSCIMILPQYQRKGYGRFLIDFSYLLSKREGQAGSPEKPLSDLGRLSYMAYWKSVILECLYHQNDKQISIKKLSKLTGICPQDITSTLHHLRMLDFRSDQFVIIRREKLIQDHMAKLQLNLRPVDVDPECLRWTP

Compound	IC50 [1] [nM]	IC50 [2] [nM]	body weight changes [3]	tolerability in tumor-bearing mice [3]
COc1ccc2c(c1S(=O)(=O)Nc1noc3cc(Cn4cccn4)cc(OC)c13)OCCCO2 [Compound 2, N-(6-((1H-Pyrazol-1-yl)methyl)-4-methoxybenzo[d]isoxazol-3-yl)-7-methoxy-3,4-dihyd ro-2H-benzo[b][1,4]dioxepine-6-sulfonamide]	3.2	5.1	not significant	tolerated
COc1ccc2c(c1S(=O)(=O)Nc1noc3cc(Cn4cccn4)cc(OC)c13)OC[C@@H]1C[C@H]21 [Compound 5-P2, (1aR,7bS)-N-(6-((1H-Pyrazol-1-yl)methyl)-4-methoxybenzo[d]isoxazol-3-yl)-5-methoxy-1,1a,2,7b-tetrahydrocyclopropa[c]chromene-4-sulfonamide]	1.1	0.5	not significant	tolerated
